# Values of other authors as cited in patent US20120245171A1, “BENZPYRAZOLE DERIVATIVES AS INHIBITORS OF PI3 KINASES” (GLAXO GROUP LIMITED, priority 2009, published 2012).
# Like-named read-outs stand apart in the source and are kept apart here.
# How the values were obtained:
# [1] = system: Class I PI3-kinases; details: each of the Class I PI3-kinases
# [2] = biological target: CK2 protein kinase (Homo sapiens, UniProt P68400)
# [3] = system: neutrophils; details: for superoxide release: neutrophils
# [4] = system: neutrophils; details: treatment of neutrophils; Thelen et al. 1994
# Chain of CK2 protein kinase (P68400 whole entry): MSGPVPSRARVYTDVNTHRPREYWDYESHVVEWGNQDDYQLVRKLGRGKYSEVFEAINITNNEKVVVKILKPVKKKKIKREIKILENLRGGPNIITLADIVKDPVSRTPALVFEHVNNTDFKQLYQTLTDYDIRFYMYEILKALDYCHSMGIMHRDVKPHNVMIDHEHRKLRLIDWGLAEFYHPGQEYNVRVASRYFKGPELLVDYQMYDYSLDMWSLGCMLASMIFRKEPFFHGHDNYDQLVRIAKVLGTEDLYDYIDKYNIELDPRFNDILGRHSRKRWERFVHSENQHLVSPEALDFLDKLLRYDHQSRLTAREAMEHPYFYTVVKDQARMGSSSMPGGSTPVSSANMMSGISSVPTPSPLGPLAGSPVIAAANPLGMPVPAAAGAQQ
"IC50 ([1]; Fruman et al. 1998, read-out: IC50 against each of these PI3-kinases) [µM]",IC50 [2] [µM],Compound,neutrophil migration [3],superoxide release [3],fMLP-induced respiratory burst response [4],IC50 ([1]; read-out: IC50 against each of the various Class I PI3-kinases) [µM]
15 to 20,5 to 10,O=c1cc(N2CCOCC2)oc2c(-c3ccccc3)cccc12 [LY294002],block,block,,
,,COC[C@H]1OC(=O)c2coc3c2[C@@]1(C)C1=C(C3=O)[C@@H]2CCC(=O)[C@@]2(C)C[C@H]1OC(C)=O [wortmannin],block,block,prevents,0.001 to 0.01
